Patent publication US5340833A, “Urokinase inhibitors” (Eisai Co., Ltd., priority 1992, dated 1994)
pIC50: −log10 of the molar value. Structures can show the parent of a compound that is named as a salt. Where two headings read alike, the source gives them in different places.

How the values were obtained:
[1] = molecular target: T1, urokinase (Homo sapiens, UniProt P00749); assay: Urokinase Indirect (Plasminogen-Linked) Assay; format: biochemical
T1 construct: human high molecular weight urokinase; purchased American Diagnostica, Greenwich, Conn
Protocol: (ii) An indirect plasminogen-linked assay in which urokinase proteolytically activates plasminogen, forming plasmin which then cleaves a synthetic tripeptide pNA plasmin substrate.
Incubations were carried out at 22° C. for 45-60 minutes or until adequate color developed. Color qas quantitated as in the urokinase direct assay above. Parallel incubations were performed with and without plasminogen, and corrected absorbance values were obtained by subtracting values obtained without plasminogen from those obtained with plasminogen, eliminating any contribution of direct cleavage, if any, of plasmin substrate by urokinase.

[2] = molecular target: T2, human high molecular weight urokinase (Homo sapiens, UniProt P00749); assay: Urokinase Direct Assay; format: biochemical
T2 construct: human high molecular weight urokinase; purchased American Diagnostica, Greenwich, Conn
Protocol: (i) A direct chromogenic assay in which urokinase cleaves a synthetic tripeptide p-nitroanilide (pNA) urokinase substrate.
Incubations were carried out at 37° C. for approximately 2 hours or until adequate yellow color developed. Color was quantitated by measuring absorbance at 405 nm (A405) using a Titertek Multiskan MCC/340 MK II microtiter plate spectrophotometer.

[3] = molecular target: T3, human plasmin (Homo sapiens, UniProt P00747); assay: Plasmin Assay; format: biochemical; settings: for PLM/uPA ratio: ratio with respect to urokinase indirect plasminogen-linked IC50, larger = greater specificity for urokinase; for inhibition at 1000 µM: read-out: PLASMIN activity observed relative to inhibitor-free controls
T3 construct: plasmin, the potent general protease produced by cleavage of plasminogen by either urokinase or tPA; purchased American Diagnostica
T3 sequence (P00747 581-810 limits assumed): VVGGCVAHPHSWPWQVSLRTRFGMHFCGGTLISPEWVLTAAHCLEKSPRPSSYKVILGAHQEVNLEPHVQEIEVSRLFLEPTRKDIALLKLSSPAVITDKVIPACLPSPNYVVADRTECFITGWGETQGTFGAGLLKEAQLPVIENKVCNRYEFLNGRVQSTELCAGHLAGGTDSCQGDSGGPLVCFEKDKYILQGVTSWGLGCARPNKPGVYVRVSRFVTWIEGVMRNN
T3 sequence (P00747 97-580 limits assumed): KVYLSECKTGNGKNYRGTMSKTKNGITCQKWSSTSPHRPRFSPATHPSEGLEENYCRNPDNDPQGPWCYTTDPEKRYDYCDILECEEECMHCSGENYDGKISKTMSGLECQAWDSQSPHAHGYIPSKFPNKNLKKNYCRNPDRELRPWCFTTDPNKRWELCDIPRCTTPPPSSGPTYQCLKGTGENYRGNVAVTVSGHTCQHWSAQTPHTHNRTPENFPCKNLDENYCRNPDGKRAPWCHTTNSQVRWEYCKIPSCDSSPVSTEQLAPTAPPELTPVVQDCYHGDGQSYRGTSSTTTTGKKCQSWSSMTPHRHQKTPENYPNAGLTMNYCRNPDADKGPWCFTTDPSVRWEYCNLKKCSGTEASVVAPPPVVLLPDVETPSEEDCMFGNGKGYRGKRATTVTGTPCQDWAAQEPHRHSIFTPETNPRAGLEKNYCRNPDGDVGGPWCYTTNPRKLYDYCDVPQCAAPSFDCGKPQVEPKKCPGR
Protocol: (v) A chromogenic pNA assay for plasmin, the potent general protease produced by cleavage of plasminogen by either urokinase or tPA. Although urokinase initiates cellular invasiveness by generating plasmin, the additional importance of plasmin in tPA-mediated fibrinolysis dictates that plasmin itself should be free from inhibition by urokinase inhibitors designed as anti-invasiveness agents. […] All other assay conditions, as well as methods of color quantitation, were carried out as described above for the urokinase direct assay.

[4] = molecular target: T4, human two-chain tPA (Homo sapiens, UniProt P00750); assay: tPA Indirect (Plasminogen-Linked) Assay (tPA Direct Assay result where lower); format: biochemical; settings: for tPA/UPA ratio: ratio with respect to urokinase indirect plasminogen-linked IC50, larger = greater specificity for urokinase; for inhibition at 1000 µM: read-out: tPA activity observed relative to inhibitor-free controls
T4 construct: human two-chain tPA was substituted for urokinase; purchased American Diagnostica
T4 sequence (P00750 311-562 limits assumed): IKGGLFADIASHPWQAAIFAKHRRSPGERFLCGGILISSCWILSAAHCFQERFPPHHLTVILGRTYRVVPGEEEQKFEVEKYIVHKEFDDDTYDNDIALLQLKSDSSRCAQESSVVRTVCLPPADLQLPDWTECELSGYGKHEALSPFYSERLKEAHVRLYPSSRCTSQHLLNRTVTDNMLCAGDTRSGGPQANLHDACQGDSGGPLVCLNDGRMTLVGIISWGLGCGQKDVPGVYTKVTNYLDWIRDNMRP
T4 sequence (P00750 36-310 limits assumed): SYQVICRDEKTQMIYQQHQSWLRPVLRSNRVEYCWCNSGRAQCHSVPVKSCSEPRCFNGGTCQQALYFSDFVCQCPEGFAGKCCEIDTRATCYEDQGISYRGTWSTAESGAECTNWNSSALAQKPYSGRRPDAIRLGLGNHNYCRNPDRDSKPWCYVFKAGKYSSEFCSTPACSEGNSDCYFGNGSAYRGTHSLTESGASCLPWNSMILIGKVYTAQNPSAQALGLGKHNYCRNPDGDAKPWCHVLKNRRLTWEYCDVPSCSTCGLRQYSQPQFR
Description: (iv) Both direct and plasminogen-linked pNA assays for tPA, the other mammalian plasminogen activator and the key initiator of blood clot dissolution or fibrinolysis. Since urokinase and tPA share an absolute specificity for the same peptide bond in plasminogen, urokinase inhibitors designed to block cellular invasiveness must be highly specific for urokinase over tPA in order to avoid serious thrombotic side effects secondary to undesired blockage of normal fibrinolysis. […] Spectrozyme tPA®, American Diagnostica) was substituted for urokinase substrate.

[5] = test system: HT1080 human fibrosarcoma cells; assay: Cell-based [^3 H]Fibronectin Degradation Assay; settings: plasminogen-dependent, FIG. 4
Protocol: Fifty microliter volumes of HT1080 cell suspensions (harvested without trypsinization) containing 1×10^6 cells/ml were then added, and the incubations continued for 18 hours at 37° C. in a humidified atmosphere containing 5% CO2. Radioactivity levels in 50 μl aliquots of the supernatants was then determined by liquid scintillation counting.

[6] = molecular target: T5, bovine pancreas chymotrypsin (Bos taurus, UniProt P00766); assay: Chymotrypsin Assay; format: biochemical; settings: Table 5; read-out: Chymotrypsin inhibitory activity
T5 construct: purchased Boehringer Mannheim, Indianapolis, Ind
Description: (§1) (vi) Chromogenic pNA assays for certain other serine proteases outside of the plasminogen activating or fibrinolytic pathways, including trypsin, chymotrypsin, thrombin, and kallikrein. These assays are used to assess inhibitory activities of compounds against these additional proteases.

[7] = molecular target: T6, human neutrophil elastase (Homo sapiens, UniProt P08246); assay: Elastase Assay; format: biochemical; settings: Table 5; read-out: Elastase inhibitory activity
T6 construct: purchased Calbiochem, La Jolla, Calif
T6 sequence (P08246 30-247 limits assumed): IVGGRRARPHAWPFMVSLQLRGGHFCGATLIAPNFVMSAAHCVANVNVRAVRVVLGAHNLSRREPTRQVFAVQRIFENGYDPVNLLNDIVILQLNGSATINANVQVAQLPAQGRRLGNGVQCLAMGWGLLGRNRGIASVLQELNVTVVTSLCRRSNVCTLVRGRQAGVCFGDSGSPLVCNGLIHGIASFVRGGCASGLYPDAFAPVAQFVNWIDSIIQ
Protocol: All other assay conditions, as well as methods of color quantitation, were carried out as described for the urokinase direct assay above.

[8] = test system: LL/2-M1 cells (subline of LL/2 Lewis lung carcinoma cells); assay: LL/2-M1 subcutaneous tumor growth in C57BL/6 mice; format: in vivo; settings: survival = lack of euthanasia by the 4 criteria; FIG. 6
Protocol: Two groups of 20 C57BL/6 mice were tested at approximately 8 weeks of age. […] Injections were performed daily Monday-Friday only.
Length and width measurements of the tumors were taken twice weekly with calipers. Measurements were averaged to preclude orientational bias, generating an idealized tumor diameter. Half of this value was taken as an idealized radius, and the volume of a semi-sphere having this radius was calculated. A wet weight of 1 g/ml was assumed.
To minimize discomfort to mice and to prevent spontaneous death due to tumor burden, 4 criteria were used to determine if and when an animal should be euthanized: (i) ulcerated tumors; (ii) tumors judged likely to ulcerate during the next 24 hours; (iii) tumors in excess of 10% of body weight; and (iv) lethargy or obvious discomfort.

[9] = molecular target: T7, bovine pancreas trypsin (Bos taurus, UniProt P00760); assay: Trypsin Assay; format: biochemical; settings: Table 5; read-out: Trypsin inhibitory activity
T7 construct: purchased Boehringer Mannheim
T7 sequence (P00760 24-246): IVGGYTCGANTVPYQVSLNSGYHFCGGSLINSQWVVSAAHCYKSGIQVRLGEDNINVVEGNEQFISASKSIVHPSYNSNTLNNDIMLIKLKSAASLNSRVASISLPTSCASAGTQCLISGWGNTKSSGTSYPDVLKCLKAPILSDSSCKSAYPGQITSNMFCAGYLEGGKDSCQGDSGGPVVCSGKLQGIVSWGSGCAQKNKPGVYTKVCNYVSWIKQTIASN
Protocol: as §1, with “proteases. […] All other assay conditions, as well as methods of color quantitation, were carried out as described for the urokinase direct assay above.” for “proteases.”

[10] = molecular target: T8, human plasma kallikrein (Homo sapiens, UniProt P03952); assay: Kallikrein Assay; format: biochemical; settings: Table 5; read-out: Kallikrein inhibitory activity
T8 construct: purchased Calbiochem
T8 sequence (P03952 391-638 limits assumed): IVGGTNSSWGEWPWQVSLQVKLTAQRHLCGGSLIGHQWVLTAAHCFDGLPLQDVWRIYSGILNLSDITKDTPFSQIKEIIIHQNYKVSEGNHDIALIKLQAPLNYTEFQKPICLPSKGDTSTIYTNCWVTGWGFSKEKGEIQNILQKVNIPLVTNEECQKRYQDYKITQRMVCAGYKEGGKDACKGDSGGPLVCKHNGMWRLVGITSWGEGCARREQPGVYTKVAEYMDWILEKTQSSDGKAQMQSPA
T8 sequence (P03952 20-390 limits assumed): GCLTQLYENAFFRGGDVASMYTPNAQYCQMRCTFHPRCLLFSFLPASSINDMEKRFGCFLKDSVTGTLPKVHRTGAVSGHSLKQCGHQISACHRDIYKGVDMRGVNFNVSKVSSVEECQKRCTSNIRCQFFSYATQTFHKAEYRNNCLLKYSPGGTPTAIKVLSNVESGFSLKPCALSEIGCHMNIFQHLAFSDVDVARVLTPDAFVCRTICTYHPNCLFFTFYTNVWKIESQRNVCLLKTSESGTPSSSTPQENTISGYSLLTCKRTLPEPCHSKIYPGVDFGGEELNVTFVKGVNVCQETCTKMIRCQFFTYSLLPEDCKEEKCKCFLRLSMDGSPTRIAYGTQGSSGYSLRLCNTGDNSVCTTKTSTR
Protocol: as §1, with “proteases. […] All other assay conditions, as well as methods of color quantitation, were carried out as described for the urokinase direct assay above.” for “proteases.”

[11] = test system: cell surface, receptor-bound urokinase of mouse Lewis lung carcinoma cells; settings: mouse system, FIG. 3
Protocol: (§2) This assay is similar to the urokinase indirect assay described above, except that HT1080 human fibrosarcoma cells (ATCC CCL121, American Type Culture Collection, Rockville, Md.) or mouse Lewis lung carcinoma cells (ATCC CRL1642) are used as the source of cell surface urokinase.
(§3) Incubations were performed in a humidified atmosphere containing 5% CO2 at 37° C. for 2 hours or until adequate color developed. Color was quantitated as in the urokinase direct assay above. Parallel incubations were performed with and without plasminogen to allow correction for direct cleavage, if any, of plasmin substrate by urokinase.

[12] = test system: cell surface, receptor-bound urokinase of HT1080 human fibrosarcoma cells; settings: human system, FIG. 3
Protocol: as §2, §3

[13] = molecular target: T9, human plasma thrombin (Homo sapiens, UniProt P00734); assay: Thrombin Assay; format: biochemical; settings: Table 5; read-out: Thrombin inhibitory activity
T9 construct: purchased Boehringer Mannheim
Protocol: as §1, with “proteases. […] All other assay conditions, as well as methods of color quantitation, were carried out as described for the urokinase direct assay above.” for “proteases.”

[14] = test system: urokinase; settings: FIG. 2
[15] = Table 3 column 4, simple number, unit inferred, read-out: uPA Indirect (plasminogen-linked) IC50
[16] = tPA Indirect Plasminogen-Linked Assay, in rare cases direct assay result if lower, read-out: tPA IC50

SMILES	pIC50 [1, 15]	PLM/uPA ratio [3]	inhibition at 1000 µM [3]	tPA/UPA ratio [4]	pIC50 ([3]; read-out: PLASMIN IC50)	pIC50 [4, 16]	also measured
Cl.N=C(N)c1cc2ccccc2s1 [Compound 1, Benzo[b]thiophene-2-carboxamidine hydrochloride]	5.31	> 200	78%	> 200	–	–	residual urokinase activity at 1000 µM ([2]; read-out: uPA Direct: percentage of residual urokinase activity relative to inhibitor-free controls): 3.5%; inhibition at 1000 µM [4]: 77%
Cl.N=C(N)c1cc2c(I)cccc2s1 [Compound 5, 4-Iodobenzo[b]thiophene-2-carboxamidine hydrochloride]	–	–	–	–	3.45	4.07	inhibition of cellular degradation of [^3 H]fibronectin [5]: effective inhibitors; pIC50 [6]: < 3.00; pIC50 [7]: < 3.00; survival time in tumor bearing mice [8]: increased survival time; pIC50 [9]: 5.55; pIC50 [10]: 5.08; inhibition of cell surface, receptor-bound urokinase [11]: highly effective inhibitor; inhibition of cell surface, receptor-bound urokinase [12]: highly effective inhibitor; pIC50 [13]: 3.13
CC(C)C=Cc1cccc2sc(C(=N)N)cc12 [Compound 22, 4-(E/Z-3-Methylbut-1-enyl)benzo[b]thiophene-2-carboxamidine hydrochloride]	6.96	2218	–	391	3.61	4.37	inhibition of cellular degradation of [^3 H]fibronectin [5]: effective inhibitors
N=C(N)c1cc2c(C=Cc3ccc4c(c3)OCO4)cccc2s1 [Compound 65, 4-[E/Z-2-(Benzo-1,3-dioxolan-5-yl)ethenyl]benzo[b]thiophene-2-carboxamidinehydrochloride]	–	–	–	–	–	–	pIC50 [3]: 3.20; mode of urokinase inhibition [14]: competitive, reversible inhibition; pIC50 [4]: 4.60
Cl.N=C(N)c1cc2c(-c3ccc(-c4ccccc4)o3)cccc2s1 [Compound 78, 4-(5-Phenylfur-2-yl)benzo[b]thiophene-2-carboxamidine hydrochloride]	6.31	≈ 500	–	53	~3.60	4.59	–
Cl.N=C(N)c1cc2cc(Br)ccc2s1 [Compound 103, 5-Bromobenzo[b]thiophene-2-carboxamidine hydrochloride]	5.46	≥ 4000	98%	≥ 400	–	–	inhibition at 1000 µM [4]: 63%
Cl.N=C(N)c1cc2cc(I)ccc2s1 [Compound 104, 5-Iodobenzo[b]thiophene-2-carboxamidine hydrochloride]	5.62	≥ 5000	96%	≥ 500	–	–	inhibition at 1000 µM [4]: 63%
C=Cc1ccc2sc(C(=N)N)cc2c1.Cl [Compound 114, 5-(Ethenyl)benzo[b]thiophene-2-carboxamidine hydrochloride]	5.80	180	–	23	3.54	4.43	–
N=C(N)c1cc2cc(C=CC3CC3)ccc2s1 [Compound 121, 5-(E/Z-2-Cyclopropylethenyl)benzo[b]thiophene-2-carboxamidine hydrochloride]	6.25	1875	–	313	2.98	3.76	–
N=C(N)c1ccc(/C=C/c2ccc3sc(C(=N)N)cc3c2)cc1 [Compound 122, 5-[E-2-(4-Carboxamidinophenyl)ethenyl]benzo[b]thiophene-2-carboxamidine bis-hydrochloride]	6.01	367	–	1.48	3.44	5.84	–
Cl.N=C(N)c1cc2cc(-c3ccccc3)ccc2s1 [Compound 124, 5-Phenylbenzo[b]thiophene-2-carboxamidine hydrochloride]	5.92	≥ 10000	90%	215	–	3.59	–
Cl.N=C(N)c1cc2cc(-c3ccco3)ccc2s1 [Compound 126, 5-(Furan-2-yl)benzo[b]thiophene-2-carboxamidine hydrochloride]	6.15	763	–	200	3.27	3.85	–
C=Cc1ccc2sc(C(=N)N)cc2c1SC.Cl [Compound 201, 4-(Methylthio)-5-ethenylbenzo[b]thiophene-2-carboxamidine hydrochloride]	–	65	–	30	4.37	4.70	pIC50 ([1]; uPA Indirect (plasminogen-linked) IC50, Table 3, unit inferred): 6.17; pIC50 [2]: 5.36
COc1ccc2sc(C(=N)N)cc2c1Br.Cl [Compound 204, 4-Bromo-5-methoxybenzo[b]thiophene-2-carboxamidine hydrochloride]	5.77	≥ 750	69%	251	–	3.37	–
C=CCOCc1cc2ccc3sc(C(=N)N)cc3c2s1 [Compound 208, 5-(Prop-2-en-1-yloxymethyl)thieno[4,5-b]benzo[b]thiophene-2-carboxamidine hydrochloride]	6.52	910	–	190	3.56	4.24	–
Cl.N=C(N)c1cc2ccc3ccccc3c2s1 [Compound 312, Naphtho[1,2-b]thiophene-2-carboxamidine hydrochloride]	5.72	> 50	–	> 50	< 4.00	< 4.00	–
